{"source": "patent US9764048B2", "about": "“Targeted molecular imaging probe and method for in vivo molecular imaging” (priority 2012, dated 2017)", "key": {"[1]": {"details": "cited from earlier work"}, "[2]": {"system": "myocardial gap junctions", "experiment": "Fluorescence microscopy of frozen tissue sections after tail vein injection of the probe", "format": "in vivo", "details": "1 h after tail vein injection", "description": "Meanwhile, frozen sections of tissue were further prepared and imaged under a fluorescence microscope. By using muscle as a control (FIGS. 3-a, 3-b, and 3-c), the distribution profile of the probe Cy5.5-Cx43SP in heart was observed under a fluorescence microscope."}, "[3]": {"experiment": "Biological distribution of Cy5.5-Cx43SP in normal mice, ex vivo near-infrared fluorescent imaging of main organs", "details": "mouse", "method": "1 hour after injection of Cy5.5-Cx43SP, the mice were sacrificed, and their organs were taken out to perform ex vivo near-infrared fluorescent imaging of main organs. […] Especially, the relatively high uptake by heart is highly consistent with the fact that normal heart express relatively high Cx43 (FIG. 6)."}, "[4]": {"system": "HeLa-Control cells", "experiment": "Cy5.5-Cx43SP1 cells binding and blocking experiment, control cells", "format": "cell-based", "details": "for binding / uptake of probe by control HeLa cells: Cy5.5-Cx43SP1 500 nmol/L, HeLa without Cx43 transfection", "description": "(§1) 1) Establishment of a Cx43 highly expressing cell line: Cervical cancer HeLa cells were transfected by Cx43 gene, and cervical cancer tumor cell lines HeLa-Cx43 overexpressing Cx43 was successfully prepared. Non-transgenic HeLa cells (without C43 expression) were used as control.\n(§2) 2) Cy5.5-Cx43SP1 cells binding and blocking experiment: HeLa-Cx43 cells and the control group HeLa-Control cells were applied onto a 12-well plate in an amount of 0.5×10^6/well one day prior to experiment, and were classified into four groups: Group A: HeLa-Cx43 cells group, Group B: HeLa-Control cells group, Group C: HeLa-Cx43 cells blocking group, Group D: HeLa-Control cells blocking group. Each group comprises 3 wells and the experiment was repeated for 3 times. Into each well was added Cy5.5-Cx43SP1 with a concentration of 500 nmol/L and an amount of 1 ml. Unlabeled Cx43SP1 was added into blocking groups with a concentration of 5 μmol/L."}, "[5]": {"system": "HeLa-Cx43 cells", "experiment": "Cy5.5-Cx43SP1 cells binding and blocking experiment", "format": "cell-based", "details": "for binding / uptake of probe by HeLa-Cx43 cells: Cy5.5-Cx43SP1 500 nmol/L, fluorescence microscopy", "description": "as §1, §2"}, "[6]": {"system": "HeLa-Cx43 tumor overexpressing Cx43", "experiment": "Optical tumor imaging of nude mice bearing tumor", "format": "in vivo, nude mouse", "details": "near-infrared fluorescent imaging, 1 h after tail vein injection", "method": "(§3) HeLa-Cx43 cells overexpressing Cx43 were used to establish a subcutaneous xenograft model in nude mouse (FIG. 9, left), and the conventional subcutaneous xenograft model of HeLa cells without transfection of Cx43 were used as control group (FIG. 9, right). In vivo Cy5.5-Cx43SP1 near-infrared fluorescent imaging of tumor was carried out."}, "[7]": {"system": "HeLa tumor", "experiment": "Optical tumor imaging of nude mice bearing tumor, control xenograft", "format": "in vivo, nude mouse", "details": "near-infrared fluorescent imaging, 1 h after tail vein injection", "method": "as §3"}, "[8]": {"system": "HeLa-Control cells", "experiment": "^64Cu-NODA-Cx43SP1 cells binding and blocking experiment, control cells", "format": "cell-based", "details": "3.2 μCi/well, HeLa without Cx43 transfection", "description": "as §1\n(§4) HeLa-Cx43 cells and control group HeLa-Control cells were applied onto a 12-well plate in an amount of 0.5×10^6/well one day prior to experiment, and were classified into four groups: Group A: HeLa-Cx43 cells group, Group B: HeLa-Control cells group, Group C: HeLa-Cx43 cells blocking group, Group D: HeLa-Control cells blocking group. Each group comprises 3 wells, and the experiment was repeated for 3 times. Into each well was added ^64Cu-NODA-Cx43SP1 with a concentration of 3.2 μCi/well and an amount of 1 ml. Unlabeled NODA-Cx43SP1 was added into the blocking groups with a concentration of 50 μg/well (10 times of ^64Cu-NODA-Cx43SP1)."}, "[9]": {"system": "HeLa-Cx43 cells", "experiment": "^64Cu-NODA-Cx43SP1 cells binding and blocking experiment", "format": "cell-based", "description": "as §1, §4"}}, "note": "“Also recorded” adds a separate entry of the source. *1 amine or outer side, *2 acyl side, *3 side chain or, on linkers, in order; H or OH if unused. Where a SMILES comes first, the peptide text is derived from it. Where no end group is shown, it is not given here. [ ]: non-standard residue; d: D form. ξ: configuration not given here. X1 = O=C(C1C[C@H](O)CN1[*:1])[*:2]; Hyp = O=C(O)[C@@H]1C[C@@H](O)CN1; ξY = NC(Cc1ccc(O)cc1)C(=O)O; ξP = O=C(O)C1CCCN1; ξA = CC(N)C(=O)O"}
{"compound": "CC(NC(=O)CN)C(=O)NCC(=O)N1C[C@@H](O)CC1C(=O)N1CCCC1C(=O)NC(Cc1ccc(O)cc1)C(N)=O", "note": "(stereo partly drawn) [AAP10, Gly-Ala-Pro-Gly-4 Hyp-Pro-Tyr] (H-G[ξA]G[X1][ξP][ξY]-NH2)", "values": [{"measurement": "stability in plasma", "setting": "[1]", "result": "not stable in plasma"}]}
{"compound": "Cy5.5-Cx43SP1: Cx43SP1 labeled with near-infrared fluorescent dye Cy5.5 via Cy5.5-NHS (GAPG[Hyp]PY; also: Cy5.5 coupled via Cy5.5-NHS, site not given here)", "values": [{"measurement": "gathering of probe in muscular tissue (control)", "setting": "[2]; frozen section of muscle", "result": "not gathered in the muscular tissue"}, {"measurement": "gathering of probe in myocardial tissue", "setting": "[2]; frozen section of myocardium", "result": "gathered in the myocardial tissue in large amount"}, {"measurement": "location of probe within myocardium", "setting": "[2]; frozen section of myocardium", "result": "mainly distributed at the location of gap junctions between myocardial cells"}, {"measurement": "excretion route", "setting": "[3]; 1 h after injection", "result": "mainly excreted through liver and intestinal tract, and partly through kidney and urinary system; also recorded: mostly excreted via liver and intestinal tract"}, {"measurement": "organ distribution of probe", "setting": "[3]; 1 h after tail vein injection, ex vivo organs", "result": "mainly distributed in heart, liver, gastrointestinal tract; also recorded: significantly gathered in the heart, stomach, liver, gall bladder and intestinal tract"}, {"measurement": "binding / uptake of probe by control HeLa cells", "setting": "[4]", "result": "no binding"}, {"measurement": "binding / uptake of probe by control HeLa cells", "setting": "[4]; listed as Cy5.5-Cx43SP", "result": "not uptaken"}, {"measurement": "uptake by control HeLa cells after blocking", "setting": "[4]; blocking with excess unlabeled Cx43SP", "result": "still do not uptake"}, {"measurement": "binding / uptake of probe by HeLa-Cx43 cells", "setting": "[5]", "result": "significant specific binding"}, {"measurement": "binding / uptake of probe by HeLa-Cx43 cells", "setting": "[5]; listed as Cy5.5-Cx43SP", "result": "uptake a large amount"}, {"measurement": "binding / uptake by HeLa-Cx43 cells after blocking", "setting": "[5]; blocking with excess unlabeled Cx43SP 5 μmol/L", "result": "substantially reduced; also recorded: decreases significantly"}, {"measurement": "gathering of probe at HeLa-Cx43 tumor", "setting": "[6]", "result": "gathered in the location of HeLa-Cx43 tumor overexpressing Cx43 in high concentration; also recorded: gathered at tumor site of HeLa-Cx43 overexpressing Cx43 in large amount"}, {"measurement": "gathering of probe at control HeLa tumor", "setting": "[7]", "result": "no obvious gather; also recorded: not concentrated at the HeLa tumor site"}]}
{"compound": "^64Cu-NODA-Cx43SP1: NODA-modified Cx43SP1 labeled with ^64Cu, PET probe (GAPG[Hyp]PY; also: NODA chelator carrying 64Cu, site not given here)", "values": [{"measurement": "binding of probe to control HeLa cells", "setting": "[8]", "result": "no binding"}, {"measurement": "binding of probe to HeLa-Cx43 cells", "setting": "[9]; 3.2 μCi/well", "result": "significant specific binding"}, {"measurement": "binding to HeLa-Cx43 in the blocking experiment", "setting": "[9]; unlabeled NODA-Cx43SP1 50 μg/well", "result": "substantially reduced"}]}
